Data published in ChEMBL document CHEMBL1127230, “New non-peptide angiotensin II receptor antagonists. 2: structure - activity relationship of a series of annelated 2(1H)-pyridinones” (Bioorg Med Chem Lett, 1994).

Tests used:
[1] = target: Angiotensin II receptor (Homo sapiens) (UniProt P30556+P50052); test: In vitro functional antagonistic affinity measured against angiotensin II receptor in paired rings of rabbit aorta; assay type: tissue-based; conditions: Oryctolagus cuniculus, target entry is the homologue from another species
Rattus norvegicus [2] = test: In vivo potency determined as dose given iv to produce reduction in angiotensin II pressor response in normotensive rats; assay type: functional; conditions: read-out: ID50 (the source's name)
Rattus norvegicus [3] = test: Tested for in vitro inhibition of specific binding of [125I]AII for bolus injection of 0.3 mg/kg lasting up to 90 min post dose; assay type: functional; conditions: 1.5 h
[4] = target: T1, Type-1 angiotensin II receptor (Bos taurus, UniProt P25104); test: Inhibition of [125I]AII binding to angiotensin II receptor of bovine adrenal cortex; assay type: tissue-based; conditions: read-out: EC50 (the source's name)
T1 sequence (P25104 whole entry): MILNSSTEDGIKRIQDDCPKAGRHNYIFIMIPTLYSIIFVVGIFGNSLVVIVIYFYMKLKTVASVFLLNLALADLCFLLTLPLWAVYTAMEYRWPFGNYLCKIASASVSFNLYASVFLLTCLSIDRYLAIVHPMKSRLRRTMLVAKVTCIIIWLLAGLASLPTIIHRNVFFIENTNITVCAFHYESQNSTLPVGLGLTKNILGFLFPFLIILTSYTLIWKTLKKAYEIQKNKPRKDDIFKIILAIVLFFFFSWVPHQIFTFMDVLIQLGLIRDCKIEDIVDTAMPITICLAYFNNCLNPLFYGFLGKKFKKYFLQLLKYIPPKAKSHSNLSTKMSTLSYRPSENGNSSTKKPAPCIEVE

Compound | pKB [1] | IC50 [4] [µM] | ED50 (Rattus norvegicus [2]) [mg/kg] | inhibition in vivo at 0.3 mg/kg (Rattus norvegicus [3]) [%]
CCc1cc2c(O)cc(=O)n(Cc3ccc(-c4ccccc4-c4nn[nH]n4)cc3)c2s1 | 9.6 | – | – | –
CCOc1ccc2c(O)c(-c3ccccc3)c(=O)n(Cc3ccc(-c4ccccc4C(=O)O)cc3)c2c1 | 7.7 | 1.8 | – | –
CCc1cc2c(O)c(-c3ccccc3)c(=O)n(Cc3ccc(-c4ccccc4-c4nn[nH]n4)cc3)c2s1 | – | 0.09 | 5 | –
CCCc1cc2c(ncn2C)c(=O)n1Cc1ccc(-c2ccccc2-c2nn[nH]n2)cc1 | 7.6 | – | – | –
O=c1c(Cc2ccccc2)c(O)c2ccccc2n1Cc1ccc(-c2ccccc2-c2nn[nH]n2)cc1 | 7.5 | – | – | –
CSc1ccc2c(O)c(-c3ccccc3)c(=O)n(Cc3ccc(-c4ccccc4-c4nn[nH]n4)cc3)c2c1 | 6.6 | 0.6 | – | –
COc1ccc2c(O)c(-c3ccccc3)c(=O)n(Cc3ccc(-c4ccccc4-c4nn[nH]n4)cc3)c2c1 | 7.4 | – | 2.5 | –
COc1ccc2c(O)c(-c3ccccc3)c(=O)n(Cc3ccc(-c4ccccc4-c4nnn[nH]4)cc3)c2c1 | – | 2.2 | – | –
COc1ccc2c(O)c(C(C)=O)c(=O)n(Cc3ccc(-c4ccccc4C(=O)O)cc3)c2c1 | 6.6 | – | – | –
CCOc1ccc2c(O)c(-c3ccccc3)c(=O)n(Cc3ccc(-c4ccccc4-c4nnn[nH]4)cc3)c2c1 | – | 0.5 | – | –
O=c1c(-c2ccccc2)c(O)c2c(n1Cc1ccc(-c3ccccc3-c3nnn[nH]3)cc1)CCC2 | – | 1.25 | – | –
O=c1c(-c2ccccc2)c(O)c2ccc([N+](=O)[O-])cc2n1Cc1ccc(-c2ccccc2-c2nn[nH]n2)cc1 | 7.5 | – | – | –
CCOc1ccc2c(O)c(Cc3ccccc3)c(=O)n(Cc3ccc(-c4ccccc4C(=O)O)cc3)c2c1 | 7.8 | – | – | –
CCOc1ccc2c(O)cc(=O)n(Cc3ccc(-c4ccccc4-c4nn[nH]n4)cc3)c2c1 | 8.9 | – | – | –
Cc1ccc2c(O)c(-c3ccccc3)c(=O)n(Cc3ccc(-c4ccccc4-c4nnn[nH]4)cc3)c2n1 | – | 1.25 | – | –
CCCc1cc2nc(O)nc-2c(O)n1Cc1ccc(-c2ccccc2-c2nn[nH]n2)cc1 | 6.4 | – | – | –
CCOc1ccc2c(O)c(-c3ccccc3)c(=O)n(Cc3ccc(-c4ccccc4-c4nn[nH]n4)cc3)c2c1 | 7.1 | – | 1.3 | –
CCCCc1nc(Cl)c(CO)n1Cc1ccc(-c2ccccc2-c2nnn[nH]2)cc1 [LOSARTAN] | 8.3 | – | 1.2 | –
O=c1c(-c2ccccc2)c(O)c2ccccc2n1Cc1ccc(-c2ccccc2-c2nn[nH]n2)cc1 | 7.2 | 1.7 | 1.2 | –
CCCc1cc2ncnc-2c(O)n1Cc1ccc(-c2ccccc2-c2nn[nH]n2)cc1 | 9.1 | – | 0.18 | –
CCc1ccc2c(O)c(-c3ccccc3)c(=O)n(Cc3ccc(-c4ccccc4C(=O)O)cc3)c2c1 | 7.2 | – | – | –

More lines, main results first:

pKB [1] | IC50 [4] [µM] | Compound | ED50 (Rattus norvegicus [2]) [mg/kg] | inhibition in vivo at 0.3 mg/kg (Rattus norvegicus [3]) [%]
10.2 | – | CCCc1cc2ncn(C)c2c(=O)n1Cc1ccc(-c2ccccc2-c2nn[nH]n2)cc1 | < 0.3 | > 50
5.9 | ~30 | CS(=O)(=O)c1ccc2c(O)c(-c3ccccc3)c(=O)n(Cc3ccc(-c4ccccc4-c4nn[nH]n4)cc3)c2c1 | – | –
6.6 | – | CCCCc1c(O)c2ccc(OC)cc2n(Cc2ccc(-c3ccccc3C(=O)O)cc2)c1=O | – | –
7.4 | 6 | O=c1c(-c2ccccc2)c(O)c2sccc2n1Cc1ccc(-c2ccccc2-c2nn[nH]n2)cc1 | 3.2 | –
6.3 | – | COc1ccc2c(O)cc(=O)n(Cc3ccc(-c4ccccc4C(=O)O)cc3)c2c1 | – | –
7 | – | Cc1ccc2c(O)c(-c3ccccc3)c(=O)n(Cc3ccc(-c4ccccc4-c4nn[nH]n4)cc3)c2n1 | – | –
8.3 | – | COc1ccc2c(O)cc(=O)n(Cc3ccc(-c4ccccc4-c4nn[nH]n4)cc3)c2c1 | 1.08 | –
7.2 | – | O=c1c(-c2ccccc2)c(O)c2c(n1Cc1ccc(-c3ccccc3-c3nn[nH]n3)cc1)CCC2 | – | –
6.7 | 9.5 | COc1ccc2c(O)c(-c3ccccc3)c(=O)n(Cc3ccc(-c4ccccc4C(=O)O)cc3)c2c1 | – | –
7.1 | – | CCCCc1nc(Cl)c(CO)n1Cc1ccc(-c2ccccc2C(=O)O)cc1 | – | –
